Assay results as given in the NIST ThermoML archive (doi:10.1021/je800110r).
± gives the expanded uncertainty stated by the source.

Conditions: Liquid, Vibrating tube method

Work on `CCCCCCCCCC` [decane] yielded a mass density (333.14 K, 31467 kPa) of 725.7 ± 2.1 kg/m3, a mass density (333.14 K, 31504 kPa) of 725.7 ± 2.1 kg/m3 and a mass density (333.14 K, 31531 kPa) of 725.6 ± 2.1 kg/m3. It also gave a mass density (333.14 K, 31564 kPa) of 725.8 ± 2.1 kg/m3, a mass density (333.14 K, 31694 kPa) of 725.9 ± 2.1 kg/m3 and a mass density (333.14 K, 31764 kPa) of 725.9 ± 2.1 kg/m3. For the same compound, the mass density (333.14 K, 32193 kPa) was 726 ± 2.1 kg/m3, the mass density (333.14 K, 32227 kPa) was 726.1 ± 2.1 kg/m3 and the mass density (333.14 K, 32261 kPa) was 726.2 ± 2.1 kg/m3. For the same compound, the mass density (333.14 K, 32305 kPa) was 726.2 ± 2.1 kg/m3, the mass density (333.14 K, 32335 kPa) was 726.3 ± 2.1 kg/m3 and the mass density (333.14 K, 32366 kPa) was 726.3 ± 2.1 kg/m3. For the same compound, the mass density (333.14 K, 32401 kPa) was 726.4 ± 2.1 kg/m3, the mass density (333.14 K, 32435 kPa) was 726.3 ± 2.1 kg/m3 and the mass density (333.15 K, 358 kPa) was 699.5 ± 2 kg/m3. For the same compound, the mass density (333.15 K, 377 kPa) was 699.6 ± 2 kg/m3, the mass density (333.15 K, 404 kPa) was 699.5 ± 2 kg/m3 and the mass density (333.15 K, 423 kPa) was 699.6 ± 2 kg/m3. For the same compound, the mass density (333.15 K, 440 kPa) was 699.5 ± 2 kg/m3, the mass density (333.15 K, 465 kPa) was 699.6 ± 2 kg/m3 and the mass density (333.15 K, 501 kPa) was 699.6 ± 2 kg/m3. For the same compound, the mass density (333.15 K, 536 kPa) was 699.7 ± 2 kg/m3, the mass density (333.15 K, 563 kPa) was 699.6 ± 2 kg/m3 and the mass density (333.15 K, 600 kPa) was 699.7 ± 2 kg/m3. For the same compound, the mass density (333.15 K, 627 kPa) was 699.8 ± 2 kg/m3, the mass density (333.15 K, 645 kPa) was 699.8 ± 2 kg/m3 and the mass density (333.15 K, 672 kPa) was 699.8 ± 2 kg/m3. It also gave a mass density (333.15 K, 696 kPa) of 699.8 ± 2 kg/m3, a mass density (333.15 K, 727 kPa) of 699.7 ± 2 kg/m3 and a mass density (333.15 K, 765 kPa) of 699.9 ± 2 kg/m3. For the same compound, the mass density (333.15 K, 1005 kPa) was 700.1 ± 2 kg/m3, the mass density (333.15 K, 1052 kPa) was 700.2 ± 2 kg/m3 and the mass density (333.15 K, 1108 kPa) was 700.3 ± 2 kg/m3. It also gave a mass density (333.15 K, 1167 kPa) of 700.2 ± 2 kg/m3, a mass density (333.15 K, 1210 kPa) of 700.4 ± 2 kg/m3 and a mass density (333.15 K, 1236 kPa) of 700.4 ± 2 kg/m3. It also gave a mass density (333.15 K, 1263 kPa) of 700.3 ± 2 kg/m3, a mass density (333.15 K, 1284 kPa) of 700.3 ± 2 kg/m3 and a mass density (333.15 K, 1315 kPa) of 700.4 ± 2 kg/m3. For the same compound, the mass density (333.15 K, 1341 kPa) was 700.4 ± 2 kg/m3, the mass density (333.15 K, 1363 kPa) was 700.5 ± 2 kg/m3 and the mass density (333.15 K, 1393 kPa) was 700.4 ± 2 kg/m3. The mass density (333.15 K, 1421 kPa) was 700.6 ± 2 kg/m3, the mass density (333.15 K, 1449 kPa) was 700.6 ± 2 kg/m3 and the mass density (333.15 K, 1481 kPa) was 700.6 ± 2 kg/m3. The mass density (333.15 K, 1519 kPa) was 700.7 ± 2 kg/m3, the mass density (333.15 K, 1544 kPa) was 700.7 ± 2 kg/m3 and the mass density (333.15 K, 1588 kPa) was 700.7 ± 2 kg/m3. For the same compound, the mass density (333.15 K, 1620 kPa) was 700.7 ± 2 kg/m3, the mass density (333.15 K, 1662 kPa) was 700.7 ± 2 kg/m3 and the mass density (333.15 K, 1706 kPa) was 700.8 ± 2 kg/m3. The mass density (333.15 K, 1751 kPa) was 701 ± 2 kg/m3, the mass density (333.15 K, 1782 kPa) was 700.9 ± 2 kg/m3 and the mass density (333.15 K, 1825 kPa) was 700.9 ± 2 kg/m3. For the same compound, the mass density (333.15 K, 1879 kPa) was 701 ± 2 kg/m3, the mass density (333.15 K, 1924 kPa) was 701 ± 2 kg/m3 and the mass density (333.15 K, 1954 kPa) was 701 ± 2 kg/m3. The mass density (333.15 K, 2001 kPa) was 701.1 ± 2 kg/m3, the mass density (333.15 K, 2049 kPa) was 701.1 ± 2 kg/m3 and the mass density (333.15 K, 2081 kPa) was 701.2 ± 2 kg/m3. For the same compound, the mass density (333.15 K, 2130 kPa) was 701.3 ± 2 kg/m3, the mass density (333.15 K, 2176 kPa) was 701.4 ± 2 kg/m3 and the mass density (333.15 K, 2223 kPa) was 701.4 ± 2 kg/m3. For the same compound, the mass density (333.15 K, 2280 kPa) was 701.4 ± 2 kg/m3, the mass density (333.15 K, 2332 kPa) was 701.3 ± 2 kg/m3 and the mass density (333.15 K, 2406 kPa) was 701.5 ± 2 kg/m3. For the same compound, the mass density (333.15 K, 2460 kPa) was 701.6 ± 2 kg/m3, the mass density (333.15 K, 2497 kPa) was 701.6 ± 2 kg/m3 and the mass density (333.15 K, 2529 kPa) was 701.6 ± 2 kg/m3. The mass density (333.15 K, 2556 kPa) was 701.6 ± 2 kg/m3, the mass density (333.15 K, 2594 kPa) was 701.7 ± 2 kg/m3 and the mass density (333.15 K, 2623 kPa) was 701.7 ± 2 kg/m3. The mass density (333.15 K, 2666 kPa) was 701.7 ± 2 kg/m3, the mass density (333.15 K, 2701 kPa) was 701.7 ± 2 kg/m3 and the mass density (333.15 K, 2737 kPa) was 701.7 ± 2 kg/m3. The mass density (333.15 K, 2769 kPa) was 701.8 ± 2 kg/m3, the mass density (333.15 K, 2837 kPa) was 701.9 ± 2 kg/m3 and the mass density (333.15 K, 3106 kPa) was 702.2 ± 2 kg/m3. The mass density (333.15 K, 3141 kPa) was 702.3 ± 2 kg/m3, the mass density (333.15 K, 3150 kPa) was 702.3 ± 2 kg/m3 and the mass density (333.15 K, 3174 kPa) was 702.3 ± 2 kg/m3. The mass density (333.15 K, 3195 kPa) was 702.3 ± 2 kg/m3, the mass density (333.15 K, 3232 kPa) was 702.3 ± 2 kg/m3 and the mass density (333.15 K, 3264 kPa) was 702.3 ± 2 kg/m3. It also gave a mass density (333.15 K, 3283 kPa) of 702.4 ± 2 kg/m3, a mass density (333.15 K, 3311 kPa) of 702.4 ± 2 kg/m3 and a mass density (333.15 K, 3335 kPa) of 702.4 ± 2 kg/m3. The mass density (333.15 K, 3368 kPa) was 702.4 ± 2 kg/m3, the mass density (333.15 K, 3387 kPa) was 702.5 ± 2 kg/m3 and the mass density (333.15 K, 3414 kPa) was 702.4 ± 2 kg/m3. It also gave a mass density (333.15 K, 3444 kPa) of 702.5 ± 2 kg/m3, a mass density (333.15 K, 3468 kPa) of 702.5 ± 2 kg/m3 and a mass density (333.15 K, 3500 kPa) of 702.6 ± 2 kg/m3. For the same compound, the mass density (333.15 K, 3528 kPa) was 702.6 ± 2 kg/m3, the mass density (333.15 K, 3556 kPa) was 702.7 ± 2 kg/m3 and the mass density (333.15 K, 3593 kPa) was 702.6 ± 2 kg/m3. It also gave a mass density (333.15 K, 3622 kPa) of 702.7 ± 2 kg/m3, a mass density (333.15 K, 3651 kPa) of 702.7 ± 2 kg/m3 and a mass density (333.15 K, 3678 kPa) of 702.8 ± 2 kg/m3. For the same compound, the mass density (333.15 K, 3717 kPa) was 702.7 ± 2 kg/m3, the mass density (333.15 K, 3736 kPa) was 702.8 ± 2 kg/m3 and the mass density (333.15 K, 3769 kPa) was 702.8 ± 2 kg/m3. For the same compound, the mass density (333.15 K, 3790 kPa) was 702.8 ± 2 kg/m3, the mass density (333.15 K, 3823 kPa) was 702.8 ± 2 kg/m3 and the mass density (333.15 K, 3870 kPa) was 703 ± 2 kg/m3. For the same compound, the mass density (333.15 K, 3903 kPa) was 703 ± 2 kg/m3, the mass density (333.15 K, 3934 kPa) was 703 ± 2 kg/m3 and the mass density (333.15 K, 3970 kPa) was 703 ± 2 kg/m3. It also gave a mass density (333.15 K, 3998 kPa) of 703.2 ± 2 kg/m3, a mass density (333.15 K, 4018 kPa) of 703.1 ± 2 kg/m3 and a mass density (333.15 K, 4043 kPa) of 703.1 ± 2 kg/m3. It also gave a mass density (333.15 K, 4068 kPa) of 703.1 ± 2 kg/m3, a mass density (333.15 K, 4097 kPa) of 703.1 ± 2 kg/m3 and a mass density (333.15 K, 4127 kPa) of 703.1 ± 2 kg/m3. For the same compound, the mass density (333.15 K, 4159 kPa) was 703.3 ± 2 kg/m3, the mass density (333.15 K, 4185 kPa) was 703.1 ± 2 kg/m3 and the mass density (333.15 K, 4204 kPa) was 703.1 ± 2 kg/m3. For the same compound, the mass density (333.15 K, 4227 kPa) was 703.2 ± 2 kg/m3, the mass density (333.15 K, 4258 kPa) was 703.3 ± 2 kg/m3 and the mass density (333.15 K, 4277 kPa) was 703.4 ± 2 kg/m3. It also gave a mass density (333.15 K, 4305 kPa) of 703.4 ± 2 kg/m3, a mass density (333.15 K, 4337 kPa) of 703.5 ± 2 kg/m3 and a mass density (333.15 K, 4365 kPa) of 703.4 ± 2 kg/m3. The mass density (333.15 K, 4394 kPa) was 703.5 ± 2 kg/m3, the mass density (333.15 K, 4422 kPa) was 703.5 ± 2 kg/m3 and the mass density (333.15 K, 4448 kPa) was 703.5 ± 2 kg/m3. For the same compound, the mass density (333.15 K, 4474 kPa) was 703.6 ± 2 kg/m3, the mass density (333.15 K, 4505 kPa) was 703.5 ± 2 kg/m3 and the mass density (333.15 K, 4527 kPa) was 703.6 ± 2 kg/m3. For the same compound, the mass density (333.15 K, 4547 kPa) was 703.5 ± 2 kg/m3, the mass density (333.15 K, 4580 kPa) was 703.6 ± 2 kg/m3 and the mass density (333.15 K, 4599 kPa) was 703.6 ± 2 kg/m3. It also gave a mass density (333.15 K, 4631 kPa) of 703.7 ± 2 kg/m3, a mass density (333.15 K, 4657 kPa) of 703.7 ± 2 kg/m3 and a mass density (333.15 K, 4686 kPa) of 703.7 ± 2 kg/m3. It also gave a mass density (333.15 K, 4710 kPa) of 703.6 ± 2 kg/m3.
